# Measurements reported in paper PMC12074479, “Design, Synthesis, and Biological Evaluation of New Analogs of Aurein 1.2 Containing Non-Proteinogenic Amino Acids” (Molecules, 2025).
# Where two headings read alike, the source gives them in different places. Where a SMILES comes first, the peptide text is derived from it. Where no end group is shown, it is not given here. [ ]: non-standard residue; d: D form. Orn = NCCC[C@H](N)C(=O)O; Dab = NCC[C@H](N)C(=O)O; Dap = NC[C@H](N)C(=O)O
# Tests used:
# MCF-12F = test: cells; details: 72 h
# Protocol: (§1) The peptides were studied for antiproliferative activity with an MTT-dye reduction assay. Cell cultures were incubated with the test peptides in twofold increasing concentrations (from 2 to 500 μM) for 72 h.
# (§2) The antiproliferative activity of the peptides was determined in normal epithelial cells (MCF-12F) and tumor cells (MCF-7 and MDA-MB-231) by MTT-assay. Cells were plated 1 × 10^3 cells/100 µL/well of 96-well plates and incubated in a thermostat under standard conditions for 24 h. Cells were then incubated with the tested peptide analogs for 72 h in different concentrations (from 2 to 500 µM). The optical density of the formazan was measured at λ = 540 nm using a microplate reader. Antiproliferative activity was expressed as % from negative control. […] The statistical analysis of the results was performed using one-way ANOVA followed by Bonferroni’s post hoc test by GraphPad Prism 8 software (San Diego, CA, USA).
# MDA-MB-231 = test: cells
# Protocol: as §1, §2
# MCF-7 = test: cells
# Protocol: as §1, §2
# [1] = tested on: Escherichia coli NBIMCC K12 407
# Protocol: (§3) The antimicrobial activity of the 7 new analogs of aurein 1.2 was evaluated by determining the MIC and MBC against Gram-positive strain Bacillus subtilis 3562 and Gram-negative strain Escherichia coli K12 407. The MIC of the newly synthesized analogs was assessed by applying a broth microdilution method, whereas their MBC was determined by using a spread plate method. All experiments were performed in triplicate.
# (§4) Bacillus subtilis NBIMCC 3562 and Escherichia coli NBIMCC K12 407 were used as test microorganisms and were purchased from the National Bank for Industrial Microorganisms and Cell Cultures (NBIMCC, Sofia, Bulgaria). Exponential cultures were obtained in Nutrient broth (NB, HiMedia, Mumbai, India) for B. subtilis NBIMCC 3562 and Luria-Bertani (LB, HiMedia, Mumbai, India) for E. coli NBIMCC K12 407, after cultivation in an incubator shaker ES-20/60 (Biosan, Latvia) at 30/37 °C for 24 h. Then, the turbidity of the microbial cultures was adjusted to the 0.5 McFarland standard using a Grant Bio DEN-1B Densitometer (Grant Instruments, Royston, UK).
# (§5) The antimicrobial activity of the obtained aurein 1.2 analogs was evaluated using the broth microdilution method, recommended by the Clinical and Laboratory Standards Institute (CLSI), to determine the minimum inhibitory concentration (MIC) of the peptides against B. subtilis NBIMCC 3562 and E. coli NBIMCC K12 407. All peptides were previously dissolved in 10% EtOH/H2O, and their 10 mg/mL stock solutions were stored at −20 °C. Bacterial cultures, previously adjusted to 0.5 McFarland standard, were incubated in the presence of different peptide concentrations (0–320 µg/mL) in 96-well polystyrene microplates (Deltalab S.L., Barcelona, Spain) at 30/37 °C for 24 h. The lowest concentration of each peptide, which inhibited bacterial growth, was considered as MIC. In addition, a drop of 20 µL of the 24 h inhibitory concentration test samples was spotted on the corresponding solid media to determine the minimum bactericidal concentration (MBC). […] All experiments were performed in triplicate.
# [2] = tested on: Bacillus subtilis NBIMCC 3562
# Protocol: as §3, §4, §5
# [3] = BALB 3T3 Neutral Red Uptake cytotoxicity/phototoxicity test; details: mouse, Mean CC50 ± SD
# Protocol: (§6) An in vitro BALB 3T3 Neutral Red Uptake assay was used to determine the cytotoxicity/phototoxicity of the peptides. Cytotoxicity of peptide analogs was calculated as a percentage relative to the negative control. […] Photo irritation factor (PIF) was used to assess the phototoxic potential of the peptide analogs. The PIF factor represents the ratio between the CC50 values of dark (non-irradiated or—Irr) and irradiated (+Irr) microplates, PIF = (CC50 − Irr)/(CC50 + Irr).
# (§7) Mouse embryonic fibroblasts (BALB 3T3) were used to perform the cytotoxicity and phototoxicity tests. The tests were performed by OECD Guidelines for the Testing of Chemicals, Section 4, Test No. 432. Cells were plated at 1 × 10^4 cells/well in 96-well plates. Cells were incubated in a thermostat for 24 h. Then, the test peptides were added at various working concentrations (4–1000 μM). In the phototoxicity test, 96-well plates were irradiated with a dose of 2.4 J/cm^2 using a solar light simulator Helios-iO (SERIC Ltd., Tokyo, Japan). Cell viability was measured using the BALB 3T3 neutral red uptake test. Cytotoxicity is presented as % relative to the negative control.
# BALB 3T3 cells = test: as above; details: for Toxicity compared to the parent peptide aurein 1.2: BALB 3T3 cells, fold lower toxicity
# Protocol: as §6, §7
# [4] = read-out: Mean IC50 ± SD, MCF-12F, MTT, normal cell line
# [5] = read-out: Mean IC50 ± SD, MDA-MB-231, MTT, 72 h
# [6] = read-out: Mean IC50 ± SD, MCF-7, MTT, 72 h
# [7] = broth microdilution, 0–320 µg/mL, 24 h, NI = no inhibition monitored
# [8] = +Irr, BALB 3T3 cells, irradiated 2.4 J/cm^2, NRU
# [9] = −Irr, BALB 3T3 cells, non-irradiated (dark), NRU
# [10] = PIF = (CC50 −Irr)/(CC50 +Irr), PIF < 2 not phototoxic, 2 < PIF < 5 possible phototoxicity, PIF > 5 phototoxic
# [11] = SI = IC50 (normal cells)/IC50 (tumor cells), normal cells MCF-12F
Compound,"CC50 [3, 8] [µM]","CC50 [3, 9] [µM]",IC50 (MCF-12F) [µM],IC50 (MDA-MB-231; 72 h) [µM],IC50 (MCF-7; 72 h) [µM],"MIC, Bacillus subtilis NBIMCC 3562 ([2]; NBIMCC 3562, 24 h) [µg/mL]",CC50 ([3]; +Irr) [µM],PIF (Photo Irritation Factor) (BALB 3T3 cells),"MIC, Escherichia coli NBIMCC K12 407 ([1]; K12, 24 h) [µg/mL]",also measured
"CC[C@H](C)[C@H](NC(=O)[C@H](CCCN)NC(=O)[C@H](CCCN)NC(=O)[C@@H](NC(=O)[C@@H](NC(=O)[C@H](CC(=O)O)NC(=O)[C@H](Cc1ccccc1)NC(=O)[C@H](CC(C)C)NC(=O)CN)[C@@H](C)CC)[C@@H](C)CC)C(=O)N[C@@H](C)C(=O)N[C@@H](CCC(=O)O)C(=O)N[C@@H](CO)C(=O)N[C@@H](Cc1ccccc1)C(N)=O [EH [Orn]^7,8, Gly-Leu-Phe-Asp-Ile-Ile-Orn^7-Orn^8-Ile-Ala-Glu-Ser-Phe-NH2] (H-GLFDII[Orn][Orn]IAESF-NH2)",101 ± 3.7,157 ± 6.38,,,,,,,,"IC50 (MCF-12F; [4]): 112 ± 7.14 µM; IC50 (MDA-MB-231; [5]): 123 ± 6.47 µM; IC50 (MCF-7; [6]): 88.9 ± 3.14 µM; MIC, Escherichia coli NBIMCC K12 407 [1, 7]: 80 µg/mL; MBC, Bacillus subtilis NBIMCC 3562 ([2]; 0–320 µg/mL, NI = no inhibition monitored): 320 µg/mL; MIC, Bacillus subtilis NBIMCC 3562 [2, 7]: 80 µg/mL; PIF (Photo Irritation Factor) (BALB 3T3 cells; [10]): 1.55"
"CC[C@H](C)[C@H](NC(=O)[C@H](CN)NC(=O)[C@H](CN)NC(=O)[C@@H](NC(=O)[C@@H](NC(=O)[C@H](CC(=O)O)NC(=O)[C@H](Cc1ccccc1)NC(=O)[C@H](CC(C)C)NC(=O)CN)[C@@H](C)CC)[C@@H](C)CC)C(=O)N[C@@H](C)C(=O)N[C@@H](CCC(=O)O)C(=O)N[C@@H](CO)C(=O)N[C@@H](Cc1ccccc1)C(N)=O [EH [Dap]^7,8, Gly-Leu-Phe-Asp-Ile-Ile-Dap^7-Dap^8-Ile-Ala-Glu-Ser-Phe-NH2] (H-GLFDII[Dap][Dap]IAESF-NH2)",,,308 ± 21.7,372.2 ± 3.17,289 ± 19.8,320,357.5 ± 3.03,1.01,,Toxicity compared to the parent peptide aurein 1.2 (BALB 3T3 cells): two to four times lower toxicity
"CC[C@H](C)[C@H](NC(=O)[C@H](CCCN)NC(=O)[C@H](CCCCN)NC(=O)[C@@H](NC(=O)[C@@H](NC(=O)[C@H](CC(=O)O)NC(=O)[C@H](Cc1ccccc1)NC(=O)[C@H](CC(C)C)NC(=O)CN)[C@@H](C)CC)[C@@H](C)CC)C(=O)N[C@@H](C)C(=O)N[C@@H](CCC(=O)O)C(=O)N[C@@H](CO)C(=O)N[C@@H](Cc1ccccc1)C(N)=O [EH [Orn]^8, Gly-Leu-Phe-Asp-Ile-Ile-Lys-Orn^8-Ile-Ala-Glu-Ser-Phe-NH2] (H-GLFDIIK[Orn]IAESF-NH2)",59.5 ± 5.21,75.6 ± 3.33,,,,,,,,
"COc1cccc2c1C(=O)c1c(O)c3c(c(O)c1C2=O)C[C@@](O)(C(=O)CO)C[C@@H]3O[C@H]1C[C@H](N)[C@H](O)[C@H](C)O1 [Doxorubicin, reference compound]",,,,,,,,,,"IC50 (MCF-12F; Homo sapiens, read-out: Mean IC50 ± SD, MCF-12F): 0.601 ± 0.059 µM; IC50 (MDA-MB-231; Homo sapiens, MDA-MB-231, 72 h, read-out: Mean IC50 ± SD, MDA-MB-231): 2.53 ± 0.11 µM; SI, MDA-MB-231 (MDA-MB-231; [11]): 0.237; IC50 (MCF-7; Homo sapiens, MCF7, 72 h, read-out: Mean IC50 ± SD, MCF-7): 0.68 ± 0.031 µM; SI, MCF-7 (MCF-7; [11]): 0.88"
"CC[C@H](C)[C@H](NC(=O)[C@H](CCCCN)NC(=O)[C@H](CCN)NC(=O)[C@@H](NC(=O)[C@@H](NC(=O)[C@H](CC(=O)O)NC(=O)[C@H](Cc1ccccc1)NC(=O)[C@H](CC(C)C)NC(=O)CN)[C@@H](C)CC)[C@@H](C)CC)C(=O)N[C@@H](C)C(=O)N[C@@H](CCC(=O)O)C(=O)N[C@@H](CO)C(=O)N[C@@H](Cc1ccccc1)C(N)=O [EH [Dab]^7, Gly-Leu-Phe-Asp-Ile-Ile-Dab^7-Lys-Ile-Ala-Glu-Ser-Phe-NH2] (H-GLFDII[Dab]KIAESF-NH2)",,,92.1 ± 2.12,125 ± 4.97,74.4 ± 3.29,80,113 ± 5.57,1.40,80,"MBC, Bacillus subtilis NBIMCC 3562 ([2]; NBIMCC 3562, 24 h): 320 µg/mL"
"GLFDIIKKIAESF-NH2 [Aurein 1.2, Gly^1-Leu^2-Phe^3-Asp^4-Ile^5-Ile^6-Lys^7-Lys^8-Ile^9-Ala^10-Glu^11-Ser^12-Phe^13-NH2]",87.2 ± 1.88,87.6 ± 2.45,,,,,,,,"IC50 (MCF-12F; [4]): 71.4 ± 2.88 µM; IC50 (MDA-MB-231; [5]): 70.9 ± 2.06 µM; IC50 (MCF-7; [6]): 68.9 ± 2.12 µM; MIC, Escherichia coli NBIMCC K12 407 [1, 7]: 40 µg/mL; MIC, Bacillus subtilis NBIMCC 3562 [2, 7]: 160 µg/mL; PIF (Photo Irritation Factor) (BALB 3T3 cells; [10]): 1"
"CC[C@H](C)[C@H](NC(=O)[C@H](CCN)NC(=O)[C@H](CCCCN)NC(=O)[C@@H](NC(=O)[C@@H](NC(=O)[C@H](CC(=O)O)NC(=O)[C@H](Cc1ccccc1)NC(=O)[C@H](CC(C)C)NC(=O)CN)[C@@H](C)CC)[C@@H](C)CC)C(=O)N[C@@H](C)C(=O)N[C@@H](CCC(=O)O)C(=O)N[C@@H](CO)C(=O)N[C@@H](Cc1ccccc1)C(N)=O [EH [Dab]^8, Gly-Leu-Phe-Asp-Ile-Ile-Lys-Dab^8-Ile-Ala-Glu-Ser-Phe-NH2] (H-GLFDIIK[Dab]IAESF-NH2)",,,68.3 ± 3.51,79.7 ± 1.78,67.2 ± 2.57,80,81.4 ± 2.34,1.13,80,"MBC, Bacillus subtilis NBIMCC 3562 ([2]; NBIMCC 3562, 24 h): 320 µg/mL"
"CC[C@H](C)[C@H](NC(=O)[C@H](CCCCN)NC(=O)[C@H](CCCN)NC(=O)[C@@H](NC(=O)[C@@H](NC(=O)[C@H](CC(=O)O)NC(=O)[C@H](Cc1ccccc1)NC(=O)[C@H](CC(C)C)NC(=O)CN)[C@@H](C)CC)[C@@H](C)CC)C(=O)N[C@@H](C)C(=O)N[C@@H](CCC(=O)O)C(=O)N[C@@H](CO)C(=O)N[C@@H](Cc1ccccc1)C(N)=O [EH [Orn]^7, Gly-Leu-Phe-Asp-Ile-Ile-Orn^7-Lys-Ile-Ala-Glu-Ser-Phe-NH2] (H-GLFDII[Orn]KIAESF-NH2)",102 ± 7.4,134 ± 7.4,,,,,,,,
"CN(C)CCCN1c2ccccc2Sc2ccc(Cl)cc21 [Chlorpromazine, reference compound]",,,,,,,2.04 ± 0.07,,,PIF (Photo Irritation Factor) (BALB 3T3 cells; mouse): 6.06
"CC[C@H](C)[C@H](NC(=O)[C@H](CCN)NC(=O)[C@H](CCN)NC(=O)[C@@H](NC(=O)[C@@H](NC(=O)[C@H](CC(=O)O)NC(=O)[C@H](Cc1ccccc1)NC(=O)[C@H](CC(C)C)NC(=O)CN)[C@@H](C)CC)[C@@H](C)CC)C(=O)N[C@@H](C)C(=O)N[C@@H](CCC(=O)O)C(=O)N[C@@H](CO)C(=O)N[C@@H](Cc1ccccc1)C(N)=O [EH [Dab]^7,8, Gly-Leu-Phe-Asp-Ile-Ile-Dab^7-Dab^8-Ile-Ala-Glu-Ser-Phe-NH2] (H-GLFDII[Dab][Dab]IAESF-NH2)",,,168 ± 2.54,164 ± 2.51,92.2 ± 1.8,160,181.1 ± 1.81,1.11,160,Toxicity compared to the parent peptide aurein 1.2 (BALB 3T3 cells): two to four times lower toxicity
